According to patent publication US20050208496A1, “Methods of testing for bronchial asthma or chronic obstructive pulmonary disease” (Genox Research, Inc., priority 2002, published 2005):

Test system: respiratory epithelial cells

IL-13: human IL-13 (Peprotech, Inc.) added to the medium at 50 ng/mL to stimulate respiratory epithelial cells
AI948584 48086_at expression change (lot 1, Day 7, AI): −3.9
AI971023 48539_at expression change (lot 1, Day 7, AI): −2.1
AI984780 (52384_s_at) expression change (lot 1, Day 7, AI): −2.5
AL040936 (45684_at) expression change (lot 1, Day 7, AI): −2.3
AQP5 32909_at expression change (lot 1, Day 7, AI): −3.4
ARHGEF4 36524_at expression change (lot 1, Day 7, AI): −4.1
ARHV (82231_at) expression change (lot 1, Day 7, AI): −2.7
AW022213 (79520_at) expression change (lot 1, Day 7, AI): −2.6
AW025596 52634_at expression change (lot 1, Day 7, AI): −2.5
AW025596 52637_g_at expression change (lot 1, Day 7, AI): −5.7
B4GALT5 56373_at expression change (lot 1, Day 7, AI): −2.2
BARX2 35425_at expression change (lot 1, Day 7, AI): −2.4
BPGM (51261_at) expression change (lot 1, Day 7, AI): −3.7
CBLB 514_at expression change (lot 1, Day 7, AI): −4.2
CBLB 35632_at expression change (lot 1, Day 7, AI): −2
COL12A1 (44730_at) expression change (lot 1, Day 7, AI): −3.5
CRABP-II 1057_at expression change (lot 1, Day 7, AI): −5.4
CRABP-II 41783_at expression change (lot 1, Day 7, AI): −8.8
Clorf28 50075_at expression change (lot 1, Day 7, AI): −3.5
DHCR24 (74557_s_at) expression change (lot 1, Day 7, AI): −2
DKFZp434K1210 44682_at expression change (lot 1, Day 7, AI): −2.1
DSC3 (79615_at) expression change (lot 1, Day 7, AI): −2.4
DSC3a, b 47119_at expression change (lot 1, Day 7, AI): −2.8
DSC3a, b 79615_at expression change (lot 1, Day 7, AI): −2.4
EVPK 39569_at expression change (lot 1, Day 7, AI): −2
FKBP5 (46271_at) expression change (lot 1, Day 7, AI): −2.3
FLJ10298 (62490_f_at) expression change (lot 1, Day 7, AI): −4.5
FLJ10718 52072_at expression change (lot 1, Day 7, AI): −3.8
FLJ12541 43546_at expression change (lot 1, Day 7, AI): −10.1
FLJ20048 (49196_at) expression change (lot 1, Day 7, AI): −4.3
FLJ20500 43853_at expression change (lot 1, Day 7, AI): −2.1
FLJ23309 45563_f_at expression change (lot 1, Day 7, AI): −2
FLJ23516 47534_at expression change (lot 1, Day 7, AI): −4.1
GABRP 40339_at expression change (lot 1, Day 7, AI): −2.1
GAS41 (64121_at) expression change (lot 1, Day 7, AI): −2
GJA1 32531_at expression change (lot 1, Day 7, AI): −8.8
GK (61873_at) expression change (lot 1, Day 7, AI): −2.7
GPD2 42720_at expression change (lot 1, Day 7, AI): −2
GSTA3 58023 at expression change (lot 1, Day 7, AI): −2.7
HEY1 44783_s_at expression change (lot 1, Day 7, AI): −4.5
HIN-1 (46200_at) expression change (lot 1, Day 7, AI): −32.7
HSPC195 44705_at expression change (lot 1, Day 7, AI): −2.4
ID1 36619_r_at expression change (lot 1, Day 7, AI): −8
IL20RA 42969_at expression change (lot 1, Day 7, AI): −2.1
IVL 36355_at expression change (lot 1, Day 7, AI): −3.7
KCNMA1 (47575_g_at) expression change (lot 1, Day 7, AI): −5.2
KCNMA1 (53796_at) expression change (lot 1, Day 7, AI): −2.8
KIAA0878 (48793_at) expression change (lot 1, Day 7, AI): −2.8
KIAA1376 (62972_at) expression change (lot 1, Day 7, AI): −2.2
KIAA1376 (64047_at) expression change (lot 1, Day 7, AI): −4
KIAA1547 58531_g_at expression change (lot 1, Day 7, AI): −2.6
KLF7 (42769_at) expression change (lot 1, Day 7, AI): −2.3
KRT6B (62998_at) expression change (lot 1, Day 7, AI): −5.6
KRT15 37582_at expression change (lot 1, Day 7, AI): −2.6
LCE 45605_at expression change (lot 1, Day 7, AI): −2.6
LMO4 1452_at expression change (lot 1, Day 7, AI): −2
LOC51297 (55440_at) expression change (lot 1, Day 7, AI): −60.6
LOC51297 (55442_g_at) expression change (lot 1, Day 7, AI): −181.3
LOC51316 (63342_at) expression change (lot 1, Day 7, AI): −2.4
LOC55893 (64071_at) expression change (lot 1, Day 7, AI): −3.5
LOC129642 (42065_at) expression change (lot 1, Day 7, AI): −5.4
LOC129642 (58288_at) expression change (lot 1, Day 7, AI): −7.2
LOC131177 (43849_s_at) expression change (lot 1, Day 7, AI): −2.6
LOC131177 (45394_s_at) expression change (lot 1, Day 7, AI): −2.3
MGC12536 46924_at expression change (lot 1, Day 7, AI): −4.9
MGC13102 (54791_at) expression change (lot 1, Day 7, AI): −3.9
MGC14128 55924_at expression change (lot 1, Day 7, AI): −5.1
MGC14128 (51669_r_at) expression change (lot 1, Day 7, AI): −4.4
MGC14597 (46030_at) expression change (lot 1, Day 7, AI): −3.7
MGC16207 43412_s_at expression change (lot 1, Day 7, AI): −2.6
MGC16207 (65876_at) expression change (lot 1, Day 7, AI): −4
N52554 47432_at expression change (lot 1, Day 7, AI): −2.7
N71183 52473_at expression change (lot 1, Day 7, AI): −2.3
PSCA (63958_at) expression change (lot 1, Day 7, AI): −6.5
RAC2 32737_at expression change (lot 1, Day 7, AI): −4.9
RIN1 1778_g_at expression change (lot 1, Day 7, AI): −2.1
SCNN1B 39682_at expression change (lot 1, Day 7, AI): −7.6
SEMA4B (46709_at) expression change (lot 1, Day 7, AI): −3.6
SERPINA3 (75248_at) expression change (lot 1, Day 7, AI): −24.4
SLC11A3 (45826_at) expression change (lot 1, Day 7, AI): −3.3
SLC34A2 (48048_at) expression change (lot 1, Day 7, AI): −2
SPON2 52576_s_at expression change (lot 1, Day 7, AI): −3
SPRR1B 37160_at expression change (lot 1, Day 7, AI): −2.1
STEAP 40297_at expression change (lot 1, Day 7, AI): −3.1
T52027 (63150_at) expression change (lot 1, Day 7, AI): −2.9
TCF8 33439_at expression change (lot 1, Day 7, AI): −2.1
TGFBI (68339_at) expression change (lot 1, Day 7, AI): −4.2
TNFAIP2 (74633_at) expression change (lot 1, Day 7, AI): −4.6
TNNT1 36113_s_at expression change (lot 1, Day 7, AI): −5.5
TPM1 36790_at expression change (lot 1, Day 7, AI): −3.3
TPM1 36791_g_at expression change (lot 1, Day 7, AI): −3.2
TPM1 36792_at expression change (lot 1, Day 7, AI): −3.9
UCP2 37591_at expression change (lot 1, Day 7, AI): −12.7
UGB 39220_at expression change (lot 1, Day 7, AI): −28.1
VEGFC 1934_s_at expression change (lot 1, Day 7, AI): −2.4
VIM 34091_s_at expression change (lot 1, Day 7, AI): −9.4
W55956 46700_at expression change (lot 1, Day 7, AI): −2.3
W72331 49486 at expression change (lot 1, Day 7, AI): −3.4
AA167714 (54897_at) expression fold change (lot 1, Day 7, AI method): 3.9 fold
AA420479 (52539_at) expression fold change (lot 1, Day 7, AI method): 4.1 fold
AA582926 (52307_at) expression fold change (lot 1, Day 7, AI method): 3.8 fold
AA604375 (44127_at) expression fold change (lot 1, Day 7, AI method): 2.5 fold
ACP5 (677_s_at) expression, fold change upon IL-13 stimulation (lot 1, Day 7, AI method): 2.5 fold
ADAM8 (40712_at) expression, fold change upon IL-13 stimulation (lot 1, Day 7, AI method): 5.1 fold
ADAM28 (35479_at) expression, fold change upon IL-13 stimulation (lot 1, Day 7, AI method): 5 fold
AI565105 (54886_at) expression fold change (lot 1, Day 7, AI method): 2.4 fold
AI659927 (54033_at) expression fold change (lot 1, Day 7, AI method): 4.2 fold
